Legend:
Test in all cases: relative viability (nuclei count vs DMSO), 5 days (fraction); higher = more cells survive
RU-SKI 43 + Palbociclib = compound: CC[C@@H](C)CNCC(=O)N1CCC2=C([C@@H]1COC3=CC=CC(=C3)C)C=CS2 [RU-SKI 43] + CC(=O)c1c(C)c2cnc(Nc3ccc(N4CCNCC4)cn3)nc2n(C2CCCC2)c1=O [Palbociclib] (partner 0.5 µM)
How it was run: (§1)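 After 5 days of treatment, lung cancer cells in 1536-well plates were fixed and stained in a single step (final 0.05% Triton X-100, 1% formaldehyde, 1 ug/ml Hoechst) and their nuclei counted on 4× images. Treatment had been applied by pin tool the day after seeding as one drug alone or as a fixed anchor-drug dose with five library-drug doses (not always all listed) in √10 steps. Relative viability is the nuclei count of treated wells divided by that of vehicle wells, and values are medians of duplicate plates.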

Irinotecan + Crizotinib = compound: CCc1c2c(nc3ccc(OC(=O)N4CCC(N5CCCCC5)CC4)cc13)-c1cc3c(c(=O)n1C2)COC(=O)[C@]3(O)CC [Irinotecan] + C[C@@H](Oc1cc(-c2cnn(C3CCNCC3)c2)cnc1N)c1c(Cl)ccc(F)c1Cl [Crizotinib] (partner 1 µM)
How it was run: as §1

MK-8033 + Bortezomib = compound: Cn1cc(-c2cnc3ccc4ccc(CS(=O)(=O)NCc5ccccn5)cc4c(=O)c3c2)cn1 [MK-8033] + CC(C)C[C@H](NC(=O)[C@H](Cc1ccccc1)NC(=O)c1cnccn1)B(O)O [Bortezomib] (partner 0.002 µM)
How it was run: as §1

RU-SKI 43 + Phenformin = compound: CC[C@@H](C)CNCC(=O)N1CCC2=C([C@@H]1COC3=CC=CC(=C3)C)C=CS2 [RU-SKI 43] + N=C(N)NC(=N)NCCc1ccccc1 [Phenformin] (partner 250 µM)
How it was run: as §1

Cell Line	relative viability (RU-SKI 43 + Palbociclib; first compound 0.1 µM)	relative viability (RU-SKI 43 + Palbociclib; first compound 0.3162 µM)	relative viability (RU-SKI 43 + Palbociclib; first compound 1 µM)	relative viability (RU-SKI 43 + Palbociclib; first compound 3.162 µM)	relative viability (RU-SKI 43 + Palbociclib; first compound 10 µM)	relative viability (Irinotecan + Crizotinib; first compound 0.6325 µM)	relative viability (Irinotecan + Crizotinib; first compound 2 µM)	relative viability (Irinotecan + Crizotinib; first compound 6.325 µM)	relative viability (Irinotecan + Crizotinib; first compound 20 µM)	relative viability (MK-8033 + Bortezomib; first compound 0.02 µM)	relative viability (MK-8033 + Bortezomib; first compound 0.06325 µM)	relative viability (MK-8033 + Bortezomib; first compound 0.2 µM)	relative viability (MK-8033 + Bortezomib; first compound 0.6325 µM)	relative viability (MK-8033 + Bortezomib; first compound 2 µM)	relative viability (RU-SKI 43 + Phenformin; first compound 0.1 µM)	relative viability (RU-SKI 43 + Phenformin; first compound 0.3162 µM)	relative viability (RU-SKI 43 + Phenformin; first compound 1 µM)	relative viability (RU-SKI 43 + Phenformin; first compound 3.162 µM)	relative viability (RU-SKI 43 + Phenformin; first compound 10 µM)
EMC-BAC-2	0.523	0.477	0.552	0.505	0.518	0.332	0.291	0.216	0.19	1	0.947	0.979	1.06	1.06	0.535	0.429	0.551	0.482	0.507
ChaGo-K-1	0.919	1.05	1	0.976	0.956	–	0.849	0.47	0.402	1.37	0.756	0.98	1.02	0.926	0.474	0.491	0.548	0.479	0.488
LXF-289	0.605	0.666	0.615	0.61	0.607	0.726	0.549	0.247	0.208	0.989	0.964	0.985	0.999	0.978	0.53	0.551	0.574	0.548	0.514
HCC-827	0.474	0.414	0.56	0.498	0.427	0.487	0.287	0.282	0.191	1.06	1.01	1.05	1.08	1.04	0.421	0.422	0.372	0.46	0.359
HCC-44	0.942	0.987	0.97	1.03	0.953	0.578	0.491	0.27	0.273	0.9	0.838	0.803	0.907	0.833	0.247	0.261	0.409	0.18	0.277
NCI-H2023	0.383	0.385	0.444	0.451	0.311	0.676	0.532	0.205	0.0482	1.06	0.89	0.852	0.96	0.778	0.421	0.471	0.466	0.43	0.396
NCI-H1734	0.351	0.323	0.358	0.325	0.298	0.618	0.336	0.226	0.177	1.14	0.814	0.871	0.898	0.916	0.43	0.385	0.44	0.35	0.38
PC-14	0.575	0.668	0.798	0.451	0.401	0.873	0.695	0.2	0.194	0.898	0.742	0.816	0.809	0.772	0.646	0.468	0.841	0.457	0.651
NCI-H3122	0.193	0.166	0.185	0.182	0.166	0.25	0.205	0.173	0.163	1.08	1.01	0.982	0.999	0.941	0.394	0.376	0.411	0.379	0.37
NCI-H2342	0.524	–	0.547	0.524	0.488	–	–	–	–	–	–	–	–	–	0.606	0.562	0.584	0.528	0.634
IA-LM	–	–	–	–	–	0.774	0.375	0.195	0.103	0.791	0.746	0.83	0.782	0.802	–	–	–	–	–
LK-2	0.685	0.912	0.949	0.673	0.674	0.206	0.248	0.303	0.301	–	–	–	–	–	0.484	0.404	0.505	0.811	0.501
NCI-H596	–	–	–	–	–	0.945	0.924	0.741	0.68	1.18	0.933	0.882	0.941	1.09	0.776	0.808	0.725	0.921	0.77
NCI-H1395	0.638	0.685	0.714	0.624	0.573	–	–	–	–	–	–	–	–	–	0.485	0.453	0.476	0.421	0.433
NCI-H1793	0.331	0.222	0.326	0.336	0.27	–	–	–	–	–	–	–	–	–	0.401	0.391	0.464	0.323	0.3
SW 900	0.542	0.513	0.522	0.522	0.45	–	–	–	–	–	–	–	–	–	0.626	0.64	0.785	0.687	0.611
NCI-H1944	0.34	0.334	0.328	0.316	0.303	0.561	0.323	0.231	0.254	–	–	–	–	–	0.214	0.21	0.225	0.213	0.177
NCI-H1703	–	–	–	–	–	0.737	0.58	0.447	0.182	0.401	0.302	0.268	0.307	0.298	–	–	–	–	–
NCI-H1299	–	–	–	–	–	0.747	0.794	0.453	0.173	1.03	0.997	1.03	1.05	1	–	–	–	–	–
SK-MES-1	0.292	0.304	0.34	0.344	0.26	0.93	0.767	0.272	0.298	–	–	–	–	–	0.645	0.778	0.725	0.716	0.63
NCI-H2170	0.394	0.467	0.419	0.453	0.372	1.1	0.588	0.309	0.186	–	–	–	–	–	0.462	0.417	0.395	0.431	0.403
